# Test results as given in patent US10167262B2, “Herbicidal substituted 3-arylpyrazoles” (FMC CORPORATION, priority 2014, dated 2019).
# Assays:
# Assay in all cases: Test E pre-/postemergence greenhouse test, plant response rating 0-100
# Assay type in all cases: in vivo
# [1] = tested on: wild poinsettia (Euphorbia heterophylla); conditions: Euphorbia heterophylla, post-emergence, Postemergence, scale 0 to 100, read-out: Plant response rating, Poinsettia, Wild
# Procedure, shortened: (§1)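 Ratings (0 no effect to 100 complete control) came from visual comparison with untreated controls 14 to 21 days after treatment. Compounds in a surfactant-containing non-phytotoxic solvent were applied preemergence to seeded silt loam and postemergence to plants at the 1- to 4-leaf stage.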
# [2] = tested on: hairy beggarticks (Bidens pilosa); conditions: Bidens pilosa, post-emergence, Postemergence, scale 0 to 100
# Procedure, shortened: as §1
# [3] = tested on: dayflower (Virginia (VA) dayflower, Commelina virginica); conditions: Commelina virginica, post-emergence, Postemergence, scale 0 to 100
# Procedure, shortened: as §1
# [4] = tested on: Brazilian crabgrass (Digitaria horizontalis); conditions: Digitaria horizontalis, post-emergence, Postemergence, scale 0 to 100, read-out: Plant response rating, Crabgrass, Brazil
# Procedure, shortened: as §1
# [5] = tested on: barnyardgrass (Echinochloa crus-galli); conditions: Echinochloa crus-galli, post-emergence, Postemergence, scale 0 to 100
# Procedure, shortened: as §1
# [6] = tested on: arrowleaf sida (Sida rhombifolia); conditions: Sida rhombifolia, post-emergence, Postemergence, scale 0 to 100
# Procedure, shortened: as §1
# corn (Zea mays) = conditions: Zea mays, post-emergence, Postemergence, scale 0 to 100
# Procedure, shortened: as §1
# [7] = tested on: sandbur (southern sandbur, Cenchrus echinatus); conditions: Cenchrus echinatus, post-emergence, Postemergence, scale 0 to 100
# Procedure, shortened: as §1
# [8] = tested on: palmer pigweed (Amaranthus palmeri); conditions: Amaranthus palmeri, post-emergence, Postemergence, scale 0 to 100
# Procedure, shortened: as §1
# [9] = tested on: waterhemp (common waterhemp, Amaranthus rudis); conditions: Amaranthus tuberculatus, post-emergence, Postemergence, scale 0 to 100
# Procedure, shortened: as §1
# [10] = tested on: field bindweed (Convolvulus arvensis); conditions: Convolvulus arvensis, post-emergence, Postemergence, scale 0 to 100
# Procedure, shortened: as §1
# [11] = tested on: Italian ryegrass (Lolium multiflorum); conditions: Lolium multiflorum, post-emergence, Postemergence, scale 0 to 100
# Procedure, shortened: as §1
smiles,measurement,setting,value
"Clc1cc(Cl)cc(-c2n[nH]cc2C(=NN2CCCC2)c2ccccc2)c1 [Compound 30, N-[[3-(3,5-dichlorophenyl)-1H-pyrazol-4-yl]phenylmethylene]-1-pyrrolidinamine]",pest or weed control at 31 g/ha,[1]; 31 g ai/ha,0%
same,pest or weed control at 62 g/ha,[1]; 62 g ai/ha,0%
same,pest or weed control at 125 g/ha,[1]; 125 g ai/ha,0%
same,pest or weed control at 250 g/ha,[1]; 250 g ai/ha,0%
same,pest or weed control at 16 g/ha,[2]; 16 g ai/ha,80%
same,pest or weed control at 125 g/ha,[2]; 125 g ai/ha,85%
same,pest or weed control at 250 g/ha,[2]; 250 g ai/ha,100%
same,pest or weed control at 16 g/ha,[3]; 16 g ai/ha,0%
same,pest or weed control at 31 g/ha,[3]; 31 g ai/ha,0%
same,pest or weed control at 62 g/ha,[3]; 62 g ai/ha,0%
same,pest or weed control at 125 g/ha,[3]; 125 g ai/ha,0%
same,pest or weed control at 250 g/ha,[3]; 250 g ai/ha,0%
same,pest or weed control at 16 g/ha,[4]; 16 g ai/ha,0%
same,pest or weed control at 31 g/ha,[4]; 31 g ai/ha,0%
same,pest or weed control at 62 g/ha,[4]; 62 g ai/ha,0%
same,pest or weed control at 125 g/ha,[4]; 125 g ai/ha,0%
same,pest or weed control at 250 g/ha,[4]; 250 g ai/ha,0%
same,pest or weed control at 16 g/ha,[5]; 16 g ai/ha,0%
same,pest or weed control at 31 g/ha,[5]; 31 g ai/ha,0%
same,pest or weed control at 62 g/ha,[5]; 62 g ai/ha,0%
same,pest or weed control at 125 g/ha,[5]; 125 g ai/ha,0%
same,pest or weed control at 250 g/ha,[5]; 250 g ai/ha,0%
same,pest or weed control at 16 g/ha,[6]; 16 g ai/ha,50%
same,pest or weed control at 31 g/ha,[6]; 31 g ai/ha,50%
same,pest or weed control at 62 g/ha,[6]; 62 g ai/ha,70%
same,pest or weed control at 125 g/ha,[6]; 125 g ai/ha,80%
same,pest or weed control at 250 g/ha,[6]; 250 g ai/ha,80%
same,"Corn plant response rating (crop injury, 0 = no effect, 100 = complete kill) at 16 g/ha",corn (Zea mays); 16 g ai/ha,0%
same,"Corn plant response rating (crop injury, 0 = no effect, 100 = complete kill) at 31 g/ha",corn (Zea mays); 31 g ai/ha,0%
same,"Corn plant response rating (crop injury, 0 = no effect, 100 = complete kill) at 62 g/ha",corn (Zea mays); 62 g ai/ha,0%
same,"Corn plant response rating (crop injury, 0 = no effect, 100 = complete kill) at 125 g/ha",corn (Zea mays); 125 g ai/ha,0%
same,"Corn plant response rating (crop injury, 0 = no effect, 100 = complete kill) at 250 g/ha",corn (Zea mays); 250 g ai/ha,0%
same,pest or weed control at 31 g/ha,[7]; 31 g ai/ha,0%
same,pest or weed control at 62 g/ha,[7]; 62 g ai/ha,0%
same,pest or weed control at 125 g/ha,[7]; 125 g ai/ha,0%
same,pest or weed control at 250 g/ha,[7]; 250 g ai/ha,0%
same,pest or weed control at 31 g/ha,[8]; 31 g ai/ha,40%
same,pest or weed control at 62 g/ha,[8]; 62 g ai/ha,100%
same,pest or weed control at 125 g/ha,[8]; 125 g ai/ha,100%
same,pest or weed control at 250 g/ha,[8]; 250 g ai/ha,100%
same,pest or weed control at 31 g/ha,[9]; 31 g ai/ha,60%
same,pest or weed control at 62 g/ha,[9]; 62 g ai/ha,70%
same,pest or weed control at 125 g/ha,[9]; 125 g ai/ha,70%
same,pest or weed control at 250 g/ha,[9]; 250 g ai/ha,75%
same,pest or weed control at 16 g/ha,[10]; 16 g ai/ha,0%
same,pest or weed control at 31 g/ha,[10]; 31 g ai/ha,0%
same,pest or weed control at 62 g/ha,[10]; 62 g ai/ha,0%
same,pest or weed control at 125 g/ha,[10]; 125 g ai/ha,0%
same,pest or weed control at 250 g/ha,[10]; 250 g ai/ha,0%
same,pest or weed control at 31 g/ha,[11]; 31 g ai/ha,0%
same,pest or weed control at 62 g/ha,[11]; 62 g ai/ha,0%
same,pest or weed control at 125 g/ha,[11]; 125 g ai/ha,0%
same,pest or weed control at 250 g/ha,[11]; 250 g ai/ha,5%
